What all share (format): cell-based
Experiment [1] has as its system oral squamous cell carcinoma (SAS). In words: In vitro anticancer assay (MTT), SAS. The conditions noted are these: SAS cells, 48 hrs, mean ± spread, read-out: Anti-proliferative evaluation IC50, SAS. As for the experimental part: (§1) The resultant tetrazolium salt was then dissolved by the addition of dimethyl sulfoxide. Color was measured spectrophotometrically in a microtiter plate reader at 570 nm and used as a relative measure of viable cell number. The number of viable cells after treatment was compared to solvent and untreated control cells and used to determine the percent of control growth as (Abtreated/Abcontrol)×100, where Ab represents the mean absorbance (n=3). […] D. Heo et al. […] (+)-camptothecin (CPT) and doxorubicin hydrochloride (Dox) were used for comparison with the compounds according to this invention.

Experiment [2] concerns esophageal carcinoma (CE81T). In words: In vitro anticancer assay (MTT), CE81T. The settings on record: CE81T cells, 48 hrs, mean ± spread, read-out: Anti-proliferative evaluation IC50, CE81T. As for the experimental part:
as §1

Experiment [3] relates to human renal clear cell carcinoma. Put plainly: In vitro anticancer assay (MTT), RCC 768-O. The conditions noted are these: RCC 768-O cells, 48 hrs, mean ± spread, read-out: Anti-proliferative evaluation IC50, RCC 768-O. As for the experimental part:
as §1

Experiment [4] relates to human cervical epithelioid carcinoma (HeLa). Put plainly: In vitro anticancer assay (MTT), HeLa. The conditions noted are these: HeLa cells, 48 hrs, mean ± spread, read-out: Anti-proliferative evaluation IC50, HeLa. As for the experimental part:
as §1

Experiment [5] deals with human stomach adenocarcinoma (AGS). Put plainly: In vitro anticancer assay (MTT), AGS. The settings on record: AGS cells, 48 hrs, mean ± spread, read-out: Anti-proliferative evaluation IC50, AGS. The procedure:
as §1

The subject of experiment [6] is hepatocellular carcinoma (SKHep1). In words: In vitro anticancer assay (MTT), SKHep1. The settings on record: 48 hrs, mean ± spread, read-out: Anti-proliferative evaluation IC50, SKHep1. As for the experimental part: as §1
The mark [7] stands for this setting: Homo sapiens, SK-HEP1, SKHep1 cells.

SMILES strings stand for the structures. Read-outs that look alike come from different tables or passages of the source. Some results are limits rather than exact numbers.

For `CC[C@@]1(O)C(=O)OCc2c1cc1n(c2=O)Cc2cc3ccccc3nc2-1` [CPT, (+)-camptothecin, reference compound], the IC50 is 6 ± 2.7 µM in experiment [1]; 2.8 ± 1.5 µM in experiment [2]; 2.8 ± 0.7 µM in experiment [3] (Homo sapiens); 0.3 ± 0.1 µM in experiment [4] (Homo sapiens); above 30 µM in experiment [5] (Homo sapiens); 0.2 ± 0.1 µM in experiment [6] (setting [7]).

For the compound `O=C1c2ccccc2-c2c(N3CCNCC3)nc3ccccc3c21` [Compound 5aa], the 50% inhibitory concentration (IC50) came out at 10.7 ± 0.9 µM in experiment [1]; 11.1 ± 8.5 µM in experiment [2]; 7.7 ± 0.4 µM in experiment [3]; 1.1 ± 0.6 µM in experiment [4]; 6.5 ± 2.6 µM in experiment [5]; 1.7 ± 1.1 µM in experiment [6] (SKHep1 cells).

As to `COc1ccc2c(c1)C(=O)c1c-2c(N2CCN(C(=O)CCNCCO)CC2)nc2ccccc12` [Compound 5aaa], the IC50 is 9.1 ± 1.6 µM in experiment [1]; 7.1 ± 0.9 µM in experiment [2]; 2 ± 1.4 µM in experiment [3]; 3.1 ± 1.2 µM in experiment [4]; 3.7 ± 0.5 µM in experiment [5]; 4.5 ± 1.1 µM in experiment [6] (SKHep1 cells).

In the case of `CN(C)CCCNc1nc2ccccc2c2c1-c1ccccc1C2=O` [Compound 5b], the IC50 in experiment [1] was 6.9 ± 0.5 µM; in experiment [2] it was above 30 µM; in experiment [3], 10 ± 0.8 µM; in experiment [4], 4 ± 0.9 µM; in experiment [5], 9.8 ± 4 µM; in experiment [6] (SKHep1 cells), 4.6 ± 1.5 µM.

`COc1ccc2c(c1)C(=O)c1c-2c(N2CCN(C(=O)CCNCCN(C)C)CC2)nc2ccccc12` [Compound 5bbb, 6-{4-{3-[2-(Dimethylamino)ethylamino]propanoyl}piperazin-1-yl}-9-methoxy-11H-indeno[1,2-c]quinolin-11-one]: the IC50 in experiment [1] stood at 8.8 ± 1 µM; in experiment [2] it was 7.4 ± 2 µM; in experiment [3] (Homo sapiens), 7 ± 1.3 µM; in experiment [4] (Homo sapiens), 4.8 ± 1.5 µM; in experiment [5] (Homo sapiens), 4.9 ± 1 µM; in experiment [6] (setting [7]), 5.1 ± 1.5 µM.

With `O=C1c2ccccc2-c2c(NCCNCCO)nc3ccccc3c21` [Compound 5c, 6-[2-(2-Hydroxyethylamino)ethylamino]-11H-indeno[1,2-c]quinolin-11-one], the IC50 in experiment [1] is 7.3 ± 0.6 µM; in experiment [2] it was above 30 µM; in experiment [3] (Homo sapiens), 8.3 ± 0.6 µM; in experiment [4] (Homo sapiens), 1 ± 0.3 µM; in experiment [5] (Homo sapiens) it was 7.9 ± 1.7 µM; in experiment [6] (setting [7]) it was 4.3 ± 1.5 µM.

Turning to `COc1ccc2c(c1)C(=O)c1c-2c(N2CCN(C(=O)CCNCCCN(C)C)CC2)nc2ccccc12` [Compound 5ccc], the concentration for half-maximal inhibition (IC50) in experiment [1] turned out to be 13.5 ± 2.2 µM; in experiment [2], 9.4 ± 0.6 µM; in experiment [3], 5.9 ± 0.9 µM; in experiment [4] it was 5.4 ± 1.3 µM; in experiment [5], 2.8 ± 1.3 µM; in experiment [6] (SKHep1 cells), 8.6 ± 0.7 µM.

For the compound `COc1cc2c(cc1OC)-c1c(N3CCNCC3)nc3ccccc3c1C2=O` [Compound 5dd, 8,9-Dimethoxy-6-(piperazin-1-yl)-11H-indeno[1,2-c]quinolin-11-one], the half-maximal inhibitory concentration (IC50) in experiment [1] stood at 11.7 ± 1.6 µM; in experiment [2], 8.3 ± 0.3 µM; in experiment [3] (Homo sapiens) it was 7.1 ± 0.6 µM; in experiment [4] (Homo sapiens), 7 ± 1.2 µM; in experiment [5] (Homo sapiens), 7.4 ± 2.1 µM; in experiment [6] (setting [7]), 6.6 ± 3.2 µM.

As to `COc1ccc2c(c1)C(=O)c1c-2c(N2CCN(C(=O)CCNCCNCCN)CC2)nc2ccccc12` [Compound 5ddd], the half-maximal inhibitory concentration (IC50) in experiment [1] was above 30 µM; in experiment [2] it was above 30 µM; in experiment [3], above 30 µM; in experiment [4], above 30 µM; in experiment [5] it was 10.8 ± 0.2 µM; in experiment [6] (SKHep1 cells) it was above 30 µM.

As to `COc1ccc2c(c1)C(=O)c1c-2c(N2CCNCC2)nc2ccc(F)cc12` [Compound 5ee, 2-Fluoro-9-methoxy-6-(piperazin-1-yl)-11H-indeno[1,2-c]quinolin-11-one], the concentration for half-maximal inhibition (IC50) in experiment [1] is 6.9 ± 0.5 µM; in experiment [2], 0.9 ± 0.6 µM; in experiment [3] (Homo sapiens) it was 4.7 ± 3 µM; in experiment [4] (Homo sapiens), above 30 µM; in experiment [5] (Homo sapiens) it was 6.5 ± 0.9 µM; in experiment [6] (setting [7]), 16.5 ± 5.1 µM.

Turning to `COc1ccc2c(c1)C(=O)c1c-2c(N2CCN(C(=O)CCNCCNCCO)CC2)nc2ccccc12` [Compound 5eee], the half-inhibitory concentration (IC50) in experiment [1] was above 30 µM; in experiment [2], above 30 µM; in experiment [3], 15 ± 3.5 µM; in experiment [4], 10.6 ± 1.2 µM; in experiment [5] it was 16 ± 0.9 µM; in experiment [6] (SKHep1 cells) it was 11.2 ± 0.9 µM.

Take `COc1ccc2c(c1OC)C(=O)c1c-2c(N2CCNCC2)nc2ccc(Cl)cc12` [Compound 5ff, 2-Chloro-9,10-dimethoxy-6-(piperazin-1-yl)-11H-indeno[1,2-c]quinolin-11-one]: the IC50 in experiment [1] was 11 ± 3.2 µM; in experiment [2], above 30 µM; in experiment [3] (Homo sapiens), 6.9 ± 0.3 µM; in experiment [4] (Homo sapiens), 4.6 ± 0.7 µM; in experiment [5] (Homo sapiens), 9.5 ± 2.7 µM; in experiment [6] (setting [7]), 4.7 ± 2.2 µM.

Turning to `COc1ccc2c(c1)C(=O)c1c-2c(N2CCN(C(=O)CCNCCCN(C)CCCN)CC2)nc2ccccc12` [Compound 5fff], the IC50 in experiment [1] was above 30 µM; in experiment [2] it was above 30 µM; in experiment [3], above 30 µM; in experiment [4], above 30 µM; in experiment [5], 10.8 ± 1.9 µM; in experiment [6] (SKHep1 cells) it was 23.5 ± 1.4 µM.

Regarding `COc1ccc2c(c1)C(=O)c1c-2c(N2CCN(C(=O)CCN3CCNCC3)CC2)nc2ccccc12` [Compound 5ggg], the IC50 was 7.7 ± 0.9 µM in experiment [1]; 7.2 ± 1.5 µM in experiment [2]; 1.5 ± 1.3 µM in experiment [3]; 4.7 ± 1.4 µM in experiment [4]; 5.5 ± 0.5 µM in experiment [5]; 4.9 ± 1.1 µM in experiment [6] (SKHep1 cells).

For `COc1ccc2c(c1)C(=O)c1c-2c(N2CCN(C(=O)CCN3CCOCC3)CC2)nc2ccccc12` [Compound 5hhh], the concentration for half-maximal inhibition (IC50) in experiment [1] was above 30 µM; in experiment [2], above 30 µM; in experiment [3], above 30 µM; in experiment [4] it was 14.3 ± 4.4 µM; in experiment [5] it was 12 ± 1.3 µM; in experiment [6] (SKHep1 cells), 15 ± 5.9 µM.

`COc1ccc2c(c1)C(=O)c1c-2c(NCCCN(C)C)nc2ccccc12` [Compound 5i, 6-[3-(Dimethylamino)propylamino]-9-methoxy-11H-indeno[1,2-c]quinolin-11-one]: the IC50 in experiment [1] was 5.5 ± 0.5 µM; in experiment [2], 7.1 ± 0.3 µM; in experiment [3] (Homo sapiens) it was above 30 µM; in experiment [4] (Homo sapiens) it was 2 ± 0.4 µM; in experiment [5] (Homo sapiens) it was 14.3 ± 0.5 µM; in experiment [6] (setting [7]) it was 11.5 ± 5.4 µM.

`COc1ccc2c(c1)C(=O)c1c-2c(N2CCN(C(=O)CCNCCN3CCNCC3)CC2)nc2ccccc12` [Compound 5iii]: the IC50 in experiment [1] is above 30 µM; in experiment [2], above 30 µM; in experiment [3], above 30 µM; in experiment [4] it was above 30 µM; in experiment [5], 13.4 ± 1.3 µM; in experiment [6] (SKHep1 cells) it was 11.5 ± 5.6 µM.

As to `COc1ccc2c(c1)C(=O)c1c-2c(N2CCN(C(=O)CCCN(C)C)CC2)nc2ccccc12` [Compound 5jjj], the IC50 in experiment [1] is 8 ± 0.8 µM; in experiment [2], above 30 µM; in experiment [3], 5.3 ± 0.5 µM; in experiment [4], 4.9 ± 1.7 µM; in experiment [5], 5.4 ± 0.6 µM; in experiment [6] (SKHep1 cells), 5.5 ± 0.8 µM.

Take `CNCC(=O)N1CCN(c2nc3ccccc3c3c2-c2ccc(OC)cc2C3=O)CC1` [Compound 5kk]: the IC50 in experiment [1] is 7.4 ± 0.9 µM; in experiment [2] it was 2.3 ± 1.3 µM; in experiment [3], 6.2 ± 1.9 µM; in experiment [4], 2 ± 0.6 µM; in experiment [5], 7.2 ± 1.5 µM; in experiment [6] (SKHep1 cells), 4.8 ± 2.1 µM.

For the compound `COc1ccc2c(c1)C(=O)c1c-2c(N2CCN(CC3CO3)CC2)nc2ccccc12` (stereo not shown) [Compound 5kkk, 9-methoxy-6-[4-(oxiran-2-ylmethyl)piperazin-1-yl]-11H-indeno[1,2-c]quinolin-11-one], the IC50 in experiment [1] is above 30 µM; in experiment [2], 0.6 µM; in experiment [3] (Homo sapiens), 19.1 ± 3.1 µM; in experiment [4] (Homo sapiens) it was 10.7 ± 1.2 µM; in experiment [5] (Homo sapiens), 21.4 ± 10.1 µM; in experiment [6] (setting [7]) it was above 30 µM.

Consider `COc1ccc2c(c1)C(=O)c1c-2c(N2CCN(C(=O)CN(C)C)CC2)nc2ccccc12` [Compound 5ll], for which the IC50 in experiment [1] was above 30 µM; in experiment [2], above 30 µM; in experiment [3], 14.1 ± 3.4 µM; in experiment [4], 11.8 ± 2.8 µM; in experiment [5], 8.7 ± 1.2 µM; in experiment [6] (SKHep1 cells), 19.2 ± 5.4 µM.

On to `COc1ccc2c(c1)C(=NOCCN1CCCC1)c1c-2cnc2ccccc12` [Compound 6aa, 9-methoxy-11H-indeno[1,2-c]quinolin-11-one O-2-(pyrrolidin-1-yl)ethyl oxime], for which the 50% inhibitory concentration (IC50) is 1.2 ± 0.2 µM in experiment [1]; 5.7 ± 1 µM in experiment [3] (Homo sapiens); 0.4 ± 0.02 µM in experiment [4] (Homo sapiens); above 30 µM in experiment [5] (Homo sapiens); 1.5 ± 0.3 µM in experiment [6] (setting [7]).

With `COc1ccc2c(c1)C(=NOCCN1CCCC1)c1c-2c(O)nc2ccccc12` [Compound 6bb, 6-hydroxy-9-methoxy-11H-indeno[1,2-c]quinolin-11-one O-2-(pyrrolidin-1-yl)ethyl oxime], the IC50 in experiment [1] came out at 0.8 ± 0.1 µM; in experiment [3] (Homo sapiens) it was 3.7 ± 0.8 µM; in experiment [4] (Homo sapiens), 0.2 ± 0.02 µM; in experiment [5] (Homo sapiens), 10.4 ± 3 µM; in experiment [6] (setting [7]), 1.2 ± 0.3 µM.

For the origin of these results see patent US7829567B2, “Imino-indeno[1,2-c] quinoline derivatives, their preparation processes, and pharmaceutical compositions comprising the same” (Kaohsiung Medical University, priority 2007, dated 2010).
